This is an account of results in patent publication US10780082B2, “Macrocycle and composition comprising thereof” (Shenzhen TargetRx, Inc., priority 2016, dated 2020).

For this assay, the system named is BaF3-NPM-ALK cells. In words: Cytotoxicity experiment, ALK WT cells. The format is cell-based, murine. Conditions: two days incubation. The protocol:
The cell line that can be used in the assay is Ba/F3, a murine pro-B cell line that has been stably transfected with the expression vector pClneo™ (Promega Corp., Madison Wis.) encoding NPM-ALK and subsequently G418-resistent cells were selected. The inhibitory activity of the compounds of Formula I can be determined as follows: BaF3-NPM-ALK cells (15000/well in a microtiter plate) were transferred to a 96-well microtiter plate. Test compounds (dissolved in DMSO) were then added in a series of concentrations (serial dilutions) with a final concentration of DMSO not exceeding 1% (v/v). […] The cell lysis was completed at room temperature within 60 minutes and the amount of Yopro bound to the DNA was determined by measurement using, for example, a CytoFluor II 96-well reader (PerSeptive Biosystems). IC50 can be determined by computer aided system using the following formula: IC50=[(ABS test−ABS start)/(ABS control−ABS start)]×100 wherein ABS was absorption.
One may read the IC50 as the concentration needed to halve the response being measured. Low readings indicate greater potency in that assay, high ones weaker potency in that assay. Regarding `C[C@H]1Oc2cc(cnc2N)-c2c(nn(C)c2C#N)CN(C)C(=O)c2ccc(F)cc21` [PF-06463922, reference compound], the IC50 is < 1 nM.
For `CC1Oc2cc(cnc2N)-c2c(nn(C)c2C#N)CN(C)C(=O)c2ccc(F)cc21` (racemic) [Compound 45] the value was < 1 nM; for `CC1Oc2cc(cnc2N)-c2c(nn(C)c2C#N)CN(C)C(=O)c2ccc(F)cc21` (single isomer, unassigned) [Compound 18], < 1 nM.
As for `CC1Oc2cc(cnc2N)-c2c(nn(C)c2C#N)CN(C)C(=O)c2ccc(F)cc21` (racemic) [Compound 58], the figure is < 1 nM.
As for `CC1Oc2cc(cnc2N)-c2c(nn(C)c2C#N)CN(C)C(=O)c2ccc(F)cc21` (racemic) [Compound 72], the figure is < 1 nM.
For the molecule `CC1Oc2cc(cnc2N)-c2c(nn(C)c2C#N)CN(C)C(=O)c2ccc(F)cc21` (racemic) [Compound 76], the half-maximal inhibitory concentration (IC50) is < 1 nM.
As for `CC1Oc2cc(cnc2N)-c2c(nn(C)c2C#N)CN(C)C(=O)c2ccc(F)cc21` (racemic) [Compound 28], the IC50 is < 1 nM.
